Laboratory results: patent US11427558B1, “Indazoles and azaindazoles as LRRK2 inhibitors” (ESCAPE Bio, Inc., priority 2019, dated 2022)

How the values were obtained:
[1] = target: Recombinant wild type LRRK2 protein (Homo sapiens (Human), UniProt Q5S007); test: LRRK2 kinase activity, LanthaScreen TR-FRET assay (wild type); format: biochemical; conditions: LRRKtide 400 nM, 25 μM ATP, 60 min; read-out: LRRK2 WT IC50
Summary of the method: (§1)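 Recombinant human wild-type or G2019S LRRK2 phosphorylated fluorescein-labelled LRRKtide (ERM-based) with ATP and serially diluted compound for 60 min at room temperature.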

[2] = target: Recombinant G2019S-LRRK2 protein (Homo sapiens (Human), UniProt Q5S007, G2019S); test: LRRK2 kinase activity, LanthaScreen TR-FRET assay (G2019S); format: biochemical; conditions: LRRKtide 400 nM, 25 μM ATP, 60 min
Recombinant G2019S-LRRK2 protein, sequence (Q5S007 whole entry G2019S): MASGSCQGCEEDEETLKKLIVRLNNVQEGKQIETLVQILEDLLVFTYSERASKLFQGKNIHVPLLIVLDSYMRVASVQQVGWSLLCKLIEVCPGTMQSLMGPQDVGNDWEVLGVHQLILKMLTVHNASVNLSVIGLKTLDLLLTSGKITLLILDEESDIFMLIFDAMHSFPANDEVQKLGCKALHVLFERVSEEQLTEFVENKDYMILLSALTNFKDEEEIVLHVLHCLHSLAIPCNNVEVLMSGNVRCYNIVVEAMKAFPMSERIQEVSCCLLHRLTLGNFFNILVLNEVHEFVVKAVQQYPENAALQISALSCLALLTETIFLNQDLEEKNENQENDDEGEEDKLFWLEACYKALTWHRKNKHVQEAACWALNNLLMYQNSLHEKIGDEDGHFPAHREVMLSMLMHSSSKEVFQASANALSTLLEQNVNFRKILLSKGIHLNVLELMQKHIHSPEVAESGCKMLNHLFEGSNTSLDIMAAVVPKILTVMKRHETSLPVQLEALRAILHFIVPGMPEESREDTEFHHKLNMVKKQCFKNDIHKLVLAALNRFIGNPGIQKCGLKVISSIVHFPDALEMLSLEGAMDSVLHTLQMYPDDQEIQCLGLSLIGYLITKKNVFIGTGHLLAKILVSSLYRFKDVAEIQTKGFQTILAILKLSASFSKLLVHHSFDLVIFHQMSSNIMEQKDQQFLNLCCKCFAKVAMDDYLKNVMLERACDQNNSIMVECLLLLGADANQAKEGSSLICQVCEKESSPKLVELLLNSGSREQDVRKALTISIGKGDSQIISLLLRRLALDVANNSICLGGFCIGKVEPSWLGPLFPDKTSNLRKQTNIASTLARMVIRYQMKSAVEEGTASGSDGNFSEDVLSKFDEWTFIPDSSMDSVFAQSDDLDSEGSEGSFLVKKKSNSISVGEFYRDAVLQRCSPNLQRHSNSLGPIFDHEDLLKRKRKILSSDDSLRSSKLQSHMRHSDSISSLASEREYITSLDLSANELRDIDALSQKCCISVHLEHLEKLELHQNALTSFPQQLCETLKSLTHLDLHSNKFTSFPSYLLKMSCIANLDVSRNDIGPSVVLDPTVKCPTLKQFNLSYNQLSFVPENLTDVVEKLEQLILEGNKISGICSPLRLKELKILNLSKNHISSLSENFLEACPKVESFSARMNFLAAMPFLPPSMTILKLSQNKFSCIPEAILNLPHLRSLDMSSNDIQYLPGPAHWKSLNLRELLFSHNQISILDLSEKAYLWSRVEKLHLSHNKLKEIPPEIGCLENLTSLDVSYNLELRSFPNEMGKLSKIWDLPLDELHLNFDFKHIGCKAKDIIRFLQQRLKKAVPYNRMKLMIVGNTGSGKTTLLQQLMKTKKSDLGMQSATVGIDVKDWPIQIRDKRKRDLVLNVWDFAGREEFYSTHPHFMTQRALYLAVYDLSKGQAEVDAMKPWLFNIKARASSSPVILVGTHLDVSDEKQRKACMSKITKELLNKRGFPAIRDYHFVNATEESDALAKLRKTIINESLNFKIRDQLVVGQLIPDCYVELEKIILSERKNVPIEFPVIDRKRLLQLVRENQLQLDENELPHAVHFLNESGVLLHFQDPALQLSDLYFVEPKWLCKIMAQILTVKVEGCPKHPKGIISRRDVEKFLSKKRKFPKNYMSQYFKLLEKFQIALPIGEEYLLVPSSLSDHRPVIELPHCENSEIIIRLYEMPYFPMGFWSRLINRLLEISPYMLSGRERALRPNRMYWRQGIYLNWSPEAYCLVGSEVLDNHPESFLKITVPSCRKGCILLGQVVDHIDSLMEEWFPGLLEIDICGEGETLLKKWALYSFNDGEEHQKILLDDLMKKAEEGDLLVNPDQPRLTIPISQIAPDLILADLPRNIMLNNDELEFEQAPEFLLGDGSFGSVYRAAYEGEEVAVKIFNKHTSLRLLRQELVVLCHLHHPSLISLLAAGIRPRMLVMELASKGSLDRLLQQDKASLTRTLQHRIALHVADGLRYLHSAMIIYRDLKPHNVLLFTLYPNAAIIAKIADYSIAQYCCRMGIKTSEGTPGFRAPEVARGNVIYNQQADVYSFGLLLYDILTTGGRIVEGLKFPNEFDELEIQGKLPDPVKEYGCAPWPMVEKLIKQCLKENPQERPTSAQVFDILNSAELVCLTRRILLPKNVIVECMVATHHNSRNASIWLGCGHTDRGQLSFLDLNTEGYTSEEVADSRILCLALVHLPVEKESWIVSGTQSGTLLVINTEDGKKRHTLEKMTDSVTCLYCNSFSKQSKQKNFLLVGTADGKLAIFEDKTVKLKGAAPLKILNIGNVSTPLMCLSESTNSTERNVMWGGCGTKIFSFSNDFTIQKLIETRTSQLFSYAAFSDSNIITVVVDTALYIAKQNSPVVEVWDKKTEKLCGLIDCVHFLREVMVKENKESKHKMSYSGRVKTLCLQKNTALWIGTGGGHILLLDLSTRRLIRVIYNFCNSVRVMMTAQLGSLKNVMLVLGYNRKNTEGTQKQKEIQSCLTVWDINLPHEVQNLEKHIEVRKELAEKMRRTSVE
Summary of the method: as §1

Recombinant wild type LRRK2 protein, sequence (Q5S007 whole entry): as the sequence (Q5S007 whole entry G2019S) above, with S2019G counted along it

| Structure (SMILES) | IC50 [1] [nM] | IC50 [2] [nM] |
| --- | --- | --- |
| Cn1c(C#N)cnc1C(=O)Nc1ccc2[nH]nc(-c3ccoc3)c2c1 [Example 96, 5-Cyano-N-(3-(furan-3-yl)-1H-indazol-5-yl)-1-methyl-1H-imidazole-2-carboxamide] | 100 to 1000 | 100 to 1000 |
| Cn1nc(C(=O)Nc2ccc3[nH]nc(-c4ccoc4)c3c2)cc1C#N [Example 97, 5-Cyano-N-(3-(furan-3-yl)-1H-indazol-5-yl)-1-methyl-1H-pyrazole-3-carboxamide] | 100 to 1000 | < 100 |
| Cc1ccccc1-c1n[nH]c2ccc(NC(=O)c3ncc(C#N)cc3C)cc12 [Example 98, 5-Cyano-3-methyl-N-(3-(o-tolyl)-1H-indazol-5-yl)picolinamide] | > 10000 | 1000 to 10000 |
| COc1ccccc1-c1n[nH]c2ccc(NC(=O)c3ncc(C#N)cc3C)cc12 [Example 99, 5-Cyano-N-(3-(2-methoxyphenyl)-1H-indazol-5-yl)-3-methylpicolinamide] | 1000 to 10000 | 100 to 1000 |
| Cc1cc(C#N)cnc1C(=O)Nc1ccc2[nH]nc(-c3ccoc3)c2n1 [Example 100, 5-Cyano-N-(3-(furan-3-yl)-1H-pyrazolo[4,3-b]pyridin-5-yl)-3-methylpicolinamide] | < 100 | < 100 |
| Cc1cc(C#N)cnc1C(=O)Nc1ccc2[nH]nc(-c3ccno3)c2c1 [Example 101, 5-Cyano-N-(3-(isoxazol-5-yl)-1H-indazol-5-yl)-3-methylpicolinamide] | 100 to 1000 | < 100 |
| Cc1cc(C#N)cnc1C(=O)Nc1ccc2[nH]nc(-c3ccc(CN4CCOCC4)s3)c2c1 [Example 102, 5-Cyano-3-methyl-N-(3-(5-(morpholinomethyl)thiophen-2-yl)-1H-indazol-5-yl)picolinamide] | 100 to 1000 | < 100 |
| Cc1cc(C#N)cnc1C(=O)Nc1ccc2[nH]nc(-c3ccnc(Br)c3)c2c1 [Example 103, N-(3-(2-Bromopyridin-4-yl)-1H-indazol-5-yl)-5-cyano-3-methylpicolinamide] | < 100 | < 100 |
| Cc1c(C(=O)Nc2ccc3[nH]nc(-c4ccccc4)c3c2)nc(C#N)n1C [Example 104, 2-Cyano-1,5-dimethyl-N-(3-phenyl-1H-indazol-5-yl)-1H-imidazole-4-carboxamide] | 100 to 1000 | 100 to 1000 |
| Cc1cc(C#N)cnc1C(=O)Nc1ccc2[nH]nc(Br)c2c1 [Example 106, N-(3-Bromo-1H-indazol-5-yl)-5-cyano-3-methylpicolinamide] | 1000 to 10000 | < 100 |
| N#Cc1ccc(C(=O)Nc2ccc3[nH]nc(-c4ccoc4)c3c2)c(O)c1 [Example 107, 4-Cyano-N-(3-(furan-3-yl)-1H-indazol-5-yl)-2-hydroxybenzamide] | 100 to 1000 | 100 to 1000 |
| Cc1cc(C#N)cnc1C(=O)Nc1ccc2[nH]nc(-c3ccc(C(=O)N4CCOCC4)cc3)c2c1 [Example 108, 5-Cyano-3-methyl-N-(3-(4-(morpholine-4-carbonyl)phenyl)-1H-indazol-5-yl)picolinamide] | 100 to 1000 | < 100 |
| Cc1cc(C#N)cnc1C(=O)Nc1ccc2[nH]nc(-c3cncc(OC(C)C)c3)c2c1 [Example 109, 5-Cyano-N-(3-(5-isopropoxypyridin-3-yl)-1H-indazol-5-yl)-3-methylpicolinamide] | 100 to 1000 | < 100 |
| Cc1cc(C#N)cnc1C(=O)Nc1ccc2[nH]nc(-c3cncs3)c2c1 [Example 110, 5-Cyano-3-methyl-N-(3-(thiazol-5-yl)-1H-indazol-5-yl)picolinamide] | 100 to 1000 | < 100 |
| Cc1cc(C#N)cnc1C(=O)Nc1ccc2[nH]nc(-c3cnco3)c2c1 [Example 111, 5-Cyano-3-methyl-N-(3-(oxazol-5-yl)-1H-indazol-5-yl)picolinamide] | 100 to 1000 | < 100 |
| Cc1cccc(-c2n[nH]c3ccc(NC(=O)c4ncc(C#N)cc4C)cc23)n1 [Example 112, 5-Cyano-3-methyl-N-(3-(6-methylpyridin-2-yl)-1H-indazol-5-yl)picolinamide] | 100 to 1000 | 100 to 1000 |
| Cc1cc(C#N)cnc1C(=O)Nc1ccc2[nH]nc(-c3ccnc(C#N)c3)c2c1 [Example 113, 5-Cyano-N-(3-(2-cyanopyridin-4-yl)-1H-indazol-5-yl)-3-methylpicolinamide] | 100 to 1000 | < 100 |
| Cc1cc(C#N)cnc1C(=O)Nc1ccc2[nH]nc(-c3ccccn3)c2c1 [Example 114, 5-Cyano-3-methyl-N-(3-(pyridin-2-yl)-1H-indazol-5-yl)picolinamide] | 1000 to 10000 | 100 to 1000 |
| Cc1cc(C#N)cnc1C(=O)Nc1ccc2[nH]nc(-c3ccnc(N4C[C@H](C)O[C@@H](C)C4)c3)c2c1 [Example 115, 5-Cyano-N-(3-(2-((2S,6S)-2,6-dimethylmorpholino)pyridin-4-yl)-1H-indazol-5-yl)-3-methylpicolinamide] | < 100 | < 100 |

| Structure (SMILES) | IC50 [1] [nM] | IC50 [2] [nM] |
| --- | --- | --- |
| N#Cc1cnc(C(=O)Nc2ccc3[nH]nc(-c4ccoc4)c3c2)c2sccc12 [Example 116, 4-Cyano-N-(3-(furan-3-yl)-1H-indazol-5-yl)thieno[2,3-c]pyridine-7-carboxamide] | 1000 to 10000 | 100 to 1000 |
| Cc1cc(C#N)cnc1C(=O)Nc1ccc2[nH]nc(-c3ccnc(N4C[C@H](C)C[C@H](C)C4)c3)c2c1 [Example 117, 5-Cyano-N-(3-(2-((3R,5S)-3,5-dimethylpiperidin-1-yl)pyridin-4-yl)-1H-indazol-5-yl)-3-methylpicolinamide] | 100 to 1000 | < 100 |
| Cc1cc(C#N)cnc1C(=O)Nc1ccc2[nH]nc(-c3ccnc(N4C[C@@H](C)O[C@@H](C)C4)c3)c2c1 [Example 118, 5-Cyano-N-(3-(2-((2S,6R)-2,6-dimethylmorpholino)pyridin-4-yl)-1H-indazol-5-yl)-3-methylpicolinamide] | < 100 | < 100 |
| Cc1cc(C#N)cnc1C(=O)Nc1ccc2[nH]nc(-c3cccc(N4C[C@@H](C)O[C@@H](C)C4)c3)c2c1 [Example 119, 5-Cyano-N-(3-(3-((2S,6R)-2,6-dimethylmorpholino)phenyl)-1H-indazol-5-yl)-3-methylpicolinamide] | 100 to 1000 | < 100 |
| N#Cc1ccc(F)c(C(=O)Nc2ccc3[nH]nc(-c4ccoc4)c3c2)c1F [Example 120, 3-Cyano-2,6-difluoro-N-(3-(furan-3-yl)-1H-indazol-5-yl)benzamide] | < 100 | < 100 |
| Cc1cc(C#N)cnc1C(=O)Nc1ccc2[nH]nc(-c3cncc(Cl)c3)c2c1 [Example 121, N-(3-(5-Chloropyridin-3-yl)-1H-indazol-5-yl)-5-cyano-3-methylpicolinamide] | 100 to 1000 | < 100 |
| N#Cc1ccc(F)c(C(=O)Nc2ccc3[nH]nc(-c4ccoc4)c3c2)c1 [Example 122, 5-Cyano-2-fluoro-N-(3-(furan-3-yl)-1H-indazol-5-yl)benzamide] | < 100 | < 100 |
| Cc1cc(C#N)cnc1C(=O)Nc1ccc2[nH]nc(-c3cnn(C)c3C)c2c1 [Example 123, 5-Cyano-N-(3-(1,5-dimethyl-1H-pyrazol-4-yl)-1H-indazol-5-yl)-3-methylpicolinamide] | 100 to 1000 | < 100 |
| Cn1cc(C#N)nc1C(=O)Nc1ccc2[nH]nc(-c3ccoc3)c2c1 [Example 124, 4-Cyano-N-(3-(furan-3-yl)-1H-indazol-5-yl)-1-methyl-1H-imidazole-2-carboxamide] | < 100 | < 100 |
| N#Cc1ccc(O)c(C(=O)Nc2ccc3[nH]nc(-c4ccoc4)c3c2)c1 [Example 125, 5-Cyano-N-(3-(furan-3-yl)-1H-indazol-5-yl)-2-hydroxybenzamide] | 100 to 1000 | 100 to 1000 |
| Cc1cc(C#N)cnc1C(=O)Nc1ccc2[nH]nc(-n3ccnc3)c2c1 [Example 126, N-(3-(1H-Imidazol-1-yl)-1H-indazol-5-yl)-5-cyano-3-methylpicolinamide] | 100 to 1000 | < 100 |
| N#Cc1cccc(C(=O)Nc2ccc3[nH]nc(-c4ccoc4)c3c2)n1 [Example 127, 6-Cyano-N-(3-(furan-3-yl)-1H-indazol-5-yl)picolinamide] | < 100 | < 100 |
| Cc1ccc(C#N)c(F)c1C(=O)Nc1ccc2[nH]nc(-c3ccoc3)c2c1 [Example 128, 3-Cyano-2-fluoro-N-(3-(furan-3-yl)-1H-indazol-5-yl)-6-methylbenzamide] | < 100 | < 100 |
| Cc1ncc(-c2n[nH]c3ccc(NC(=O)c4ncc(C#N)cc4C)cc23)o1 [Example 129, 5-Cyano-3-methyl-N-(3-(2-methyloxazol-5-yl)-1H-indazol-5-yl)picolinamide] | < 100 | < 100 |
| Cc1cc(C#N)cnc1C(=O)Nc1ccc2[nH]nc(-c3cc(C#N)cs3)c2c1 [Example 130, 5-Cyano-N-(3-(4-cyanothiophen-2-yl)-1H-indazol-5-yl)-3-methylpicolinamide] | < 100 | < 100 |
| Cc1cc(C#N)cnc1C(=O)Nc1ccc2[nH]nc(-c3ccc(C#N)s3)c2c1 [Example 131, 5-Cyano-N-(3-(5-cyanothiophen-2-yl)-1H-indazol-5-yl)-3-methylpicolinamide] | 100 to 1000 | < 100 |
| N#Cc1ccnc(C(=O)Nc2ccc3[nH]nc(-c4ccoc4)c3c2)n1 [Example 132, 4-Cyano-N-(3-(furan-3-yl)-1H-indazol-5-yl)pyrimidine-2-carboxamide] | < 100 | < 100 |
| Cc1c(C(=O)Nc2ccc3[nH]nc(-c4ccoc4)c3c2)n[nH]c1C#N [Example 133, 5-Cyano-N-(3-(furan-3-yl)-1H-indazol-5-yl)-4-methyl-1H-pyrazole-3-carboxamide] | 100 to 1000 | < 100 |
| Cc1c(C#N)ccc(F)c1C(=O)Nc1ccc2[nH]nc(-c3ccoc3)c2c1 [Example 134, 3-Cyano-6-fluoro-N-(3-(furan-3-yl)-1H-indazol-5-yl)-2-methylbenzamide] | < 100 | < 100 |
